≈ marks a conversion by molar mass, not a printed value. Structures can show the parent of a compound that is named as a salt.
Assays:
[1] = tested on: Streptococcus faecalis ATCC 10541; test: Antibacterial activity, minimum growth inhibitory concentration by agar dilution method (SF); type: cell-based; conditions: Enterococcus faecalis, ATCC10541, pH 7, read-out: MIC, Streptococcus faecalis (SF)
Protocol: (§1) The various compounds of formula (I) of Examples 1-26 were tested for antibacterial activity against 6 microorganisms. […]. In this table, the following symbols are used:
SF: Streptococcus faecalis ATCC 10541

[2] = tested on: Staphylococcus aureus ATCC 6538P; test: Antibacterial activity, minimum growth inhibitory concentration by agar dilution method (SA); type: cell-based; conditions: ATCC6538P, pH 7, read-out: MIC, Staphylococcus aureus (SA)
Protocol: as §1
SA: Staphylococcus aureus ATCC 6538P

Bacillus subtilis 10707 = test: Antibacterial activity, minimum growth inhibitory concentration by agar dilution method (BS); type: cell-based; conditions: Bacillus subtilis, 10707, pH 7, read-out: MIC, Bacillus subtilis (BS)
Protocol: as §1
BS: Bacillus subtilis 10707

[3] = tested on: Proteus vulgaris ATCC 6897; test: Antibacterial activity, minimum growth inhibitory concentration by agar dilution method (PV); type: cell-based; conditions: ATCC6897, pH 7, read-out: MIC, Proteus vulgaris (PV)
Protocol: as §1
PV: Proteus vulgaris ATCC 6897

[4] = Acute toxicity in mice (LD50, Behrens Kerber's method); conditions: mouse, in vivo, ip; ddy mice, single intraperitoneal administration, 14 days observation
Protocol: (§2) The antitumour-activity and toxicity of various compounds of formula (I) were investigated as indicated below.
Each animal of the test group consisting of 5 ddy mice was administered intraperitoneally once with a test compound. […] The LD50 was determined by Behrens Kerber's method.

Sarcoma 180 solid tumour = test: Anti-tumour activity against Sarcoma 180 solid tumour in mice; type: in vivo; conditions: Mus musculus, sc, 168 h; Sarcoma 180 s.c. in ddy mice; into tail vein 24 hours after implantation; volume at 7 days; read-out: ED50 (dose reducing tumour volume to 50% of control)
Protocol: as §2
(1) Effect against Sarcoma 180 solid tumour cells
5×10^6 cells of Sarcoma 180 solid tumour were intraperitoneally implanted into ddy mice. 7 days later, ascites cells were sampled. The cells were washed once with a sterilized physiological solution of sodium chloride and were used to prepare a cell suspension containing 5×10^7 cells per ml. On each occasion, 0.1 ml of the cell suspension was subcutaneously implanted into the right arm pit of a male mouse (ddy strain; body weight 20±2 g). The test compound was dissolved in a physiological solution of sodium chloride with or without addition of Tween 80 and was administered into the tail vein of each mouse of a group consisting of 5 mice at a dose of 0.1-0.2 ml, 24 hours after the implantation of the tumour cells.
The anti-tumour activity was determined in the following manner. 7 days after the implantation, the major axis (a) and the minor axis (b) of the tumour were measured to calculate a value of "a×b^2 /2" which corresponds to the volume of the tumour. The anti-tumour activity was expressed by the ratio of the volume of the tumours (T) of the group of animals administered with the test compound to the corresponding volume of tumours (c) of the untreated animals.
(2) Determination of ED50
(The amount needed for reducing the volume of Sarcoma 180 solid tumours in mice to 50% on the basis of the corresponding volume of Sarcoma solid tumours in control untreated animals). On graph paper, T/C (the ratio of the volume of tumours of treated and control animals) was indicated by an arithmetic scale on the longitudinal axis and the administered amount of the test compound was indicated by a logarithmic scale on the lateral axis.
The relationship between the dose and T/C was shown by a straight line determined by the method of least squares, from which a dose corresponding to T/C of 0.5 was obtained.

peripheral leucocytes = test: Effect on the peripheral leucocytes number in Sarcoma 180 bearing mice; type: in vivo; conditions: Sarcoma 180 bearing ddy mice; intraperitoneal 24 hours after implantation; blood 4 days later
Protocol: as §2
(4) Effect on the peripheral leucocytes number
Sarcoma 180 solid tumour cells (5×10^6) were subcutaneously implanted into the right arm pit of each mouse (body weight 20±2 g) of a group consisting of 5 male mice (ddy strain). 24 hours after implantation, a test compound was intraperitoneally administered to each animal. 4 days later, blood (each 0.02 ml) was collected from the suborbital plexus vein of each tumour-carrying animal. The collected sample of the blood was dispersed in 9.98 ml of Cell-Kit Seven solution. One drop of saponin solution was added to the sample to dissolve erythrocytes, and then a microcell counter was used to measure the number of leucocytes. On a graph paper, the number of leucocytes was indicated on the y-axis by an arithmetic scale and the dose of the test compound was indicated on the x-axis by a logarithmic scale. The relationship between the number of peripheral leucocytes and the dosage of the test compound was plotted and the dosage corresponding to 4000 peripheral leucocytes/mm^3 (about 1/2 the number of leucocytes of normal mice) was obtained. This value is denoted in Table 5 by WBC4000.

[5] = tested on: Shigella sonnei ATCC 9290; test: Antibacterial activity, minimum growth inhibitory concentration by agar dilution method (SS); type: cell-based; conditions: ATCC9290, pH 7, read-out: MIC, Shigella sonnei (SS)
Protocol: as §1
SS: Shigella sonnei ATCC 9290

[6] = tested on: Klebsiella pneumoniae ATCC 10031; test: microbe, parasite or virus in culture; type: cell-based; conditions: ATCC10031, pH 7, read-out: MIC, Klebsiella pneumoniae (KP)
From the text: In this table, the following symbols are used:
KP: Klebsiella pneumoniae ATCC 10031

Question: Which MIC [1] does the source give for `CC1=C(NCCSSC[C@H](N)C(=O)O)C(=O)C2=C(C1=O)N1C[C@H]3[C@H](N3C)[C@]1(O)[C@H]2COC(N)=O` (stereo partly drawn) [Compound 15, 7-N-[2-[(L-Cystein-S-yl)thio]ethyl]mitomycin D] here?
Answer: 13 µg/mL (≈ 25.3 µM)

Question: And the MIC [2]?
Answer: 13 µg/mL (≈ 25.3 µM)

Question: What about the MIC (Bacillus subtilis 10707) of the same compound?
Answer: 6.3 µg/mL (≈ 12.3 µM)

Question: What about the MIC [3] of the same compound?
Answer: 13 µg/mL (≈ 25.3 µM)

Question: What about the LD50 at 336 h [4] of the same compound?
Answer: 135 mg/kg

Question: And the ED50 (Sarcoma 180 solid tumour)?
Answer: 54 mg/kg

Question: What about the “WBC4000 (dosage corresponding to 4000 peripheral leucocytes/mm^3)” value (“WBC4000” below) (peripheral leucocytes) of the same compound?
Answer: 81.9 mg/kg

Question: With `CO[C@@]12[C@H](COC(N)=O)C3=C(C(=O)C(C)=C(NCCSSC(C)(C)[C@H](N)C(=O)O)C3=O)N1C[C@@H]1N[C@@H]12` [Compound 18, 7-N-[2-[(L-Pencillamin-S-yl)thio]ethyl]mitomycin C] as the compound, how does the MIC [1] read?
Answer: 0.63 µg/mL (≈ 1.16 µM)

Question: What about the MIC [2] of the same compound?
Answer: 0.31 µg/mL (≈ 0.572 µM)

Question: And the MIC (Bacillus subtilis 10707)?
Answer: 0.08 µg/mL (≈ 0.148 µM)

Question: And the MIC [3]?
Answer: 0.31 µg/mL (≈ 0.572 µM)

Question: And the MIC [5]?
Answer: > 20 µg/mL

Question: And the MIC [6]?
Answer: 0.08 µg/mL (≈ 0.148 µM)

Question: What about the LD50 at 336 h [4] of the same compound?
Answer: 30 mg/kg

Question: What about the ED50 (Sarcoma 180 solid tumour) of the same compound?
Answer: 9.9 mg/kg

Question: What about the “WBC4000” value (peripheral leucocytes) of the same compound?
Answer: 18.8 mg/kg

Question: Which results are given for `CO[C@@]12[C@H](COC(N)=O)C3=C(C(=O)C(C)=C(NCCSSc4ccc(F)cc4)C3=O)N1C[C@@H]1N[C@@H]12` [Compound 12, 7-N-[2-(4-Fluorophenyldithio)ethyl]mitomycin C]?
Answer: MIC [1]: < 0.02 µg/mL; MIC [2]: < 0.02 µg/mL; MIC (Bacillus subtilis 10707): < 0.02 µg/mL; MIC [3]: 0.63 µg/mL (≈ 1.21 µM); MIC [5]: 20 µg/mL (≈ 38.4 µM); MIC [6]: 0.31 µg/mL (≈ 0.595 µM); LD50 at 336 h [4]: 6.8 mg/kg; ED50 (Sarcoma 180 solid tumour): 3.5 mg/kg; WBC4000 (dosage corresponding to 4000 peripheral leucocytes/mm^3) (peripheral leucocytes): 10.4 mg/kg

Question: For `CO[C@@]12[C@H](COC(N)=O)C3=C(C(=O)C(C)=C(NCCSSc4ccc(Cl)cc4)C3=O)N1C[C@@H]1N[C@@H]12` [Compound 11, 7-N-[2-(4-Chlorophenyldithio)ethyl]mitomycin C], which MIC [1] is on record?
Answer: 0.04 µg/mL (≈ 0.0745 µM)

Question: And the MIC [2]?
Answer: < 0.01 µg/mL

Question: And the MIC (Bacillus subtilis 10707)?
Answer: < 0.01 µg/mL

Question: And the MIC [3]?
Answer: 0.63 µg/mL (≈ 1.17 µM)

Question: What about the MIC [5] of the same compound?
Answer: 10 µg/mL (≈ 18.6 µM)

Question: What about the MIC [6] of the same compound?
Answer: 0.63 µg/mL (≈ 1.17 µM)

Question: And the LD50 at 336 h [4]?
Answer: 9 mg/kg

Question: What about the ED50 (Sarcoma 180 solid tumour) of the same compound?
Answer: 4.5 mg/kg

Question: And the “WBC4000” value (peripheral leucocytes)?
Answer: > 10 mg/kg

Question: Which MIC [1] does the source give for `CC(=O)Nc1ccc(SSCCNC2=C(C)C(=O)C3=C(C2=O)[C@H](COC(N)=O)[C@@]2(O)[C@@H]4[C@H](CN32)N4C)cc1` (stereo partly drawn) [Compound 7, 7-N-[2-(4-Acetamidophenyldithio)ethyl]mitomycin D] here?
Answer: 5 µg/mL (≈ 8.93 µM)

Question: What about the MIC [2] of the same compound?
Answer: 10 µg/mL (≈ 17.9 µM)

Question: What about the MIC (Bacillus subtilis 10707) of the same compound?
Answer: 5 µg/mL (≈ 8.93 µM)

Question: And the MIC [3]?
Answer: > 40 µg/mL

Question: And the LD50 at 336 h [4]?
Answer: 46.3 mg/kg

Question: What about the ED50 (Sarcoma 180 solid tumour) of the same compound?
Answer: > 25 mg/kg

Question: What about the “WBC4000” value (peripheral leucocytes) of the same compound?
Answer: 45.5 mg/kg

Question: Which LD50 at 336 h [4] does the source give for `CO[C@@]12[C@H](COC(N)=O)C3=C(C(=O)C(C)=C(NCCSSC(C)(C)[C@@H](N)C(=O)O)C3=O)N1C[C@@H]1N[C@@H]12` [Compound 28] here?
Answer: 26.3 mg/kg

Question: And the ED50 (Sarcoma 180 solid tumour)?
Answer: 8.2 mg/kg

Question: What about the “WBC4000” value (peripheral leucocytes) of the same compound?
Answer: 16.3 mg/kg

Question: For `CO[C@@]12[C@H](COC(N)=O)C3=C(C(=O)C(C)=C(NCCSSc4ccccc4N)C3=O)N1C[C@@H]1N[C@@H]12` [Compound 2, 7-N-[2-(2-Aminophenyldithio)ethyl]mitomycin C], which MIC [1] is on record?
Answer: < 0.02 µg/mL

Question: What about the MIC [2] of the same compound?
Answer: 0.04 µg/mL (≈ 0.0773 µM)

Question: What about the MIC (Bacillus subtilis 10707) of the same compound?
Answer: < 0.02 µg/mL

Question: What about the MIC [3] of the same compound?
Answer: 2.5 µg/mL (≈ 4.83 µM)

Question: What about the MIC [5] of the same compound?
Answer: 20 µg/mL (≈ 38.6 µM)

Question: What about the MIC [6] of the same compound?
Answer: 0.31 µg/mL (≈ 0.599 µM)

Question: Which results are given for `CC1=C(NCCSSC[C@H](N)C(=O)NCC(=O)O)C(=O)C2=C(C1=O)N1C[C@H]3[C@H](N3C)[C@]1(O)[C@H]2COC(N)=O` (stereo partly drawn) [Compound 21, 7-N-[2-[(Glycino-L-cystein-S-yl)thio]ethyl]mitomycin D]?
Answer: MIC [1]: 13 µg/mL (≈ 22.8 µM); MIC [2]: 13 µg/mL (≈ 22.8 µM); MIC (Bacillus subtilis 10707): 3.1 µg/mL (≈ 5.43 µM); MIC [3]: 13 µg/mL (≈ 22.8 µM); LD50 at 336 h [4]: > 200 mg/kg; ED50 (Sarcoma 180 solid tumour): 61.1 mg/kg; WBC4000 (dosage corresponding to 4000 peripheral leucocytes/mm^3) (peripheral leucocytes): 83.9 mg/kg

Question: Which results are given for `CO[C@@]12[C@H](COC(N)=O)C3=C(C(=O)C(C)=C(NCCSSC[C@H](NC(=O)CC[C@H](N)C(=O)O)C(=O)NCC(=O)O)C3=O)N1C[C@@H]1N[C@@H]12` [Compound 22, 7-N-[2-[(γ-L-Glutamyl-L-cysteinylglycin-S-yl)thio]ethyl]mitomycin C potassium salt]?
Answer: MIC [1]: 1.3 µg/mL; MIC [2]: 0.31 µg/mL; MIC (Bacillus subtilis 10707): 0.08 µg/mL; MIC [3]: 2.5 µg/mL; MIC [5]: > 20 µg/mL; MIC [6]: 0.63 µg/mL

Reference: US4691024A, “New mitomycin derivatives, preparation thereof and pharmaceutical compositions containing them” (priority 1984, dated 1987)
